# Results from patent US7329761B2, “Substituted imides” (Celgene Corporation, priority 1994, dated 2008).
row,melting point [°C],Structure (SMILES)
1,124 to 125,"COc1ccc(C(C)N2C(=O)c3ccccc3C2=O)cc1OC (stereo not shown) [Example 2, 1-Phthalimido-1-(3′,4′-dimethoxyphenyl) Ethane]"
2,85 to 86,"CCC(c1ccc(OC)cc1)N1C(=O)c2ccccc2C1=O (stereo not shown) [Example 3, 1-Phthalimido-1-(4-methoxyphenyl)propane]"
3,160 to 161,"COc1ccc(CN2C(=O)c3ccccc3C2=O)cc1OC [Example 4, 1-Phthalimido-1-(3′,4′-dimethoxyphenyl)methane]"
4,100 to 101,"CCCC(CCC)C(c1ccc(OC)c(OC)c1)N1C(=O)c2ccccc2C1=O (stereo not shown) [Example 7, 1-Phthalimido-1 (3′,4′-dimethoxyphenyl)-2-propylpentane]"
